Measurements as given in ChEMBL document CHEMBL3885861, “Open TG-GATES”.

Species: Rattus norvegicus
Assay: Open TG-GATES - Regimen: Single
Format: toxicity, organism-based, Sprague-Dawley
Set-up: regimen Single, gender Male, age 6 weeks
Details: in vivo, po, 20 mg/kg, route gavage, dose level High; for KIDNEY_L / KIDNEY_R / KIDNEY_TOTAL: tissue Kidney; for LIVER: tissue Liver; for ALP / ALT / AST / BUN / CRE / Ca / Cl / DBIL / GLC / IP / K / LDH / Na / PL / RALB / TBIL / TC / TG / TP / gamma-GTP: tissue Plasma

For `OCCN1CCN(CCCN2c3ccccc3Sc3ccc(C(F)(F)F)cc32)CC1` [FLUPHENAZINE], the TERMINAL_BW (3 h) was 197.6 g, the APTT (3 h, tissue Blood) was 16.7 s and the Bas (3 h, tissue Blood) was 0%. For the same compound, the Eos (3 h, tissue Blood) was 0.8%, the Fbg (3 h, tissue Blood) was 205.4 mg/dL and the Hb (3 h, tissue Blood) was 12.9 g/dL. The Lym (3 h, tissue Blood) was 81.6%, the MCH (3 h, tissue Blood) was 21.4 pg and the MCHC (3 h, tissue Blood) was 33%. The MCV (3 h, tissue Blood) was 64.9 fL, the Mono (3 h, tissue Blood) was 4.4% and the Neu (3 h, tissue Blood) was 13.6%. It also gave a PT (3 h, tissue Blood) of 12.7 s, a Plat (3 h, tissue Blood) of 111.6 x10_4/uL and an RBC (3 h, tissue Blood) of 600.6 x10_4/ul. It also gave a Ret (3 h, tissue Blood) of 9.2%, a WBC (3 h, tissue Blood) of 64.5 x10_2/uL and a KIDNEY_L (3 h) of 0.9 g. For the same compound, the KIDNEY_R (3 h) was 0.9 g, the KIDNEY_TOTAL (3 h) was 1.8 g and the LIVER (3 h) was 9.2 g. It also gave an ALP (3 h) of 781.6 IU/L, an ALT (3 h) of 29.4 IU/L and an AST (3 h) of 58 IU/L. It also gave a BUN (3 h) of 10 mg/dL, a CRE (3 h) of 0.5 mg/dL and a Ca (3 h) of 10.7 mg/dL. The Cl (3 h) was 107.4 meq/L, the DBIL (3 h) was 0.006 mg/dL and the GLC (3 h) was 225.6 mg/dL. The IP (3 h) was 10.6 mg/dL, the K (3 h) was 4.3 meq/L and the LDH (3 h) was 145.2 IU/L. It also gave a Na (3 h) of 139 meq/L, a PL (3 h) of 132 mg/dL and an RALB (3 h) of 3.7 g/dL. It also gave a TBIL (3 h) of 0.3 mg/dL, a TC (3 h) of 74.6 mg/dL and a TG (3 h) of 33.8 mg/dL. For the same compound, the TP (3 h) was 5.3 g/dL, the gamma-GTP (3 h) was 1.6 IU/L and the TERMINAL_BW (6 h) was 194.7 g. The APTT (6 h, tissue Blood) was 16.3 s, the Bas (6 h, tissue Blood) was 0% and the Eos (6 h, tissue Blood) was 0.4%. The Fbg (6 h, tissue Blood) was 205.8 mg/dL, the Hb (6 h, tissue Blood) was 12.8 g/dL and the Lym (6 h, tissue Blood) was 79%. For the same compound, the MCH (6 h, tissue Blood) was 21.9 pg, the MCHC (6 h, tissue Blood) was 32.9% and the MCV (6 h, tissue Blood) was 66.4 fL. The Mono (6 h, tissue Blood) was 6.4%, the Neu (6 h, tissue Blood) was 14.6% and the PT (6 h, tissue Blood) was 12.3 s. The Plat (6 h, tissue Blood) was 100.1 x10_4/uL, the RBC (6 h, tissue Blood) was 587.4 x10_4/ul and the Ret (6 h, tissue Blood) was 7.7%. It also gave a WBC (6 h, tissue Blood) of 59.6 x10_2/uL, a KIDNEY_L (6 h) of 0.9 g and a KIDNEY_R (6 h) of 0.9 g. For the same compound, the KIDNEY_TOTAL (6 h) was 1.8 g, the LIVER (6 h) was 8.8 g and the ALP (6 h) was 839.8 IU/L. The ALT (6 h) was 32 IU/L, the AST (6 h) was 60.2 IU/L and the BUN (6 h) was 10.6 mg/dL. The CRE (6 h) was 0.5 mg/dL, the Ca (6 h) was 10 mg/dL and the Cl (6 h) was 107.4 meq/L. For the same compound, the DBIL (6 h) was 0.018 mg/dL, the GLC (6 h) was 215.2 mg/dL and the IP (6 h) was 9.9 mg/dL. The K (6 h) was 4.3 meq/L, the LDH (6 h) was 171.6 IU/L and the Na (6 h) was 138 meq/L. The PL (6 h) was 125.6 mg/dL, the RALB (6 h) was 3.5 g/dL and the TBIL (6 h) was 0.4 mg/dL. It also gave a TC (6 h) of 76 mg/dL, a TG (6 h) of 16.6 mg/dL and a TP (6 h) of 5.3 g/dL. It also gave a gamma-GTP (6 h) of 1.2 IU/L, a TERMINAL_BW (9 h) of 190.3 g and an APTT (9 h, tissue Blood) of 16.3 s. It also gave a Bas (9 h, tissue Blood) of 0%, an Eos (9 h, tissue Blood) of 0.2% and a Fbg (9 h, tissue Blood) of 214.8 mg/dL. The Hb (9 h, tissue Blood) was 12.7 g/dL, the Lym (9 h, tissue Blood) was 76.8% and the MCH (9 h, tissue Blood) was 21.3 pg. The MCHC (9 h, tissue Blood) was 33.1%, the MCV (9 h, tissue Blood) was 64.4 fL and the Mono (9 h, tissue Blood) was 6%. For the same compound, the Neu (9 h, tissue Blood) was 16.4%, the PT (9 h, tissue Blood) was 12.3 s and the Plat (9 h, tissue Blood) was 113.7 x10_4/uL. For the same compound, the RBC (9 h, tissue Blood) was 594 x10_4/ul, the Ret (9 h, tissue Blood) was 8.4% and the WBC (9 h, tissue Blood) was 72.7 x10_2/uL. The KIDNEY_L (9 h) was 0.9 g, the KIDNEY_R (9 h) was 0.9 g and the KIDNEY_TOTAL (9 h) was 1.8 g. It also gave an LIVER (9 h) of 7.8 g, an ALP (9 h) of 741.8 IU/L and an ALT (9 h) of 28.8 IU/L. It also gave an AST (9 h) of 56 IU/L, a BUN (9 h) of 9.6 mg/dL and a CRE (9 h) of 0.5 mg/dL. For the same compound, the Ca (9 h) was 10 mg/dL, the Cl (9 h) was 107 meq/L and the DBIL (9 h) was 0.03 mg/dL. For the same compound, the GLC (9 h) was 197 mg/dL, the IP (9 h) was 9.6 mg/dL and the K (9 h) was 4.2 meq/L. The LDH (9 h) was 157.8 IU/L, the Na (9 h) was 139.2 meq/L and the PL (9 h) was 135 mg/dL. The RALB (9 h) was 3.7 g/dL, the TBIL (9 h) was 0.3 mg/dL and the TC (9 h) was 89 mg/dL. It also gave a TG (9 h) of 11.2 mg/dL, a TP (9 h) of 5.3 g/dL and a gamma-GTP (9 h) of 1.2 IU/L. For the same compound, the TERMINAL_BW (24 h) was 176 g, the APTT (24 h, tissue Blood) was 16.6 s and the Bas (24 h, tissue Blood) was 0%. The Eos (24 h, tissue Blood) was 0.2%, the Fbg (24 h, tissue Blood) was 206.6 mg/dL and the Hb (24 h, tissue Blood) was 14.7 g/dL. For the same compound, the Ht (24 h, tissue Blood) was 44.3%, the Lym (24 h, tissue Blood) was 81.2% and the MCH (24 h, tissue Blood) was 21.5 pg. It also gave an MCHC (24 h, tissue Blood) of 33.2%, an MCV (24 h, tissue Blood) of 64.8 fL and a Mono (24 h, tissue Blood) of 7.6%. It also gave a Neu (24 h, tissue Blood) of 10.6%, a PT (24 h, tissue Blood) of 12.2 s and a Plat (24 h, tissue Blood) of 125.2 x10_4/uL. The RBC (24 h, tissue Blood) was 684 x10_4/ul, the Ret (24 h, tissue Blood) was 6.6% and the WBC (24 h, tissue Blood) was 78.6 x10_2/uL. For the same compound, the KIDNEY_L (24 h) was 0.9 g, the KIDNEY_R (24 h) was 0.9 g and the KIDNEY_TOTAL (24 h) was 1.8 g. For the same compound, the LIVER (24 h) was 7.5 g, the ALP (24 h) was 847.4 IU/L and the ALT (24 h) was 27.8 IU/L. The AST (24 h) was 69.6 IU/L, the BUN (24 h) was 23.8 mg/dL and the CRE (24 h) was 0.5 mg/dL. The Ca (24 h) was 10.5 mg/dL, the Cl (24 h) was 105.4 meq/L and the DBIL (24 h) was 0.012 mg/dL. It also gave a GLC (24 h) of 176 mg/dL, an IP (24 h) of 9 mg/dL and a K (24 h) of 4.9 meq/L. For the same compound, the LDH (24 h) was 171.6 IU/L, the Na (24 h) was 138.6 meq/L and the PL (24 h) was 138.8 mg/dL. For the same compound, the RALB (24 h) was 4.3 g/dL, the TBIL (24 h) was 0.3 mg/dL and the TC (24 h) was 87.6 mg/dL. It also gave a TG (24 h) of 44.6 mg/dL, a TP (24 h) of 6.1 g/dL and a gamma-GTP (24 h) of 1.2 IU/L.
